Structures are written as SMILES.

Five compounds from ChEMBL document CHEMBL1121861, “Mammalian metabolism of phencyclidine” (J Med Chem, 1981) can be followed below.

One data set is filed under the species Canis familiaris. Put plainly: Compound was evaluated for the mean locomotor activity ([…]) by the difference in the counts between postinjection and preinjection activities. In kind it is functional, Canis lupus familiaris.
Data set [1] is described as follows: Half-life determined in the urine of dog. In kind it is ADME, organism-based, Canis lupus familiaris.
Data set [2] is described as follows: Half-life determined in the urine of monkey. In kind it is ADME. Particulars: simiiformes.

`Cl.O=C(O)CCCCNC1(c2ccccc2)CCCCC1` registered an Activity in the data set filed under Canis familiaris of -1063.

As for `COC(=O)CCCCNC1(c2ccccc2)CCCCC1.Cl`, in the data set filed under Canis familiaris, the Activity was -1418.

`Cl.O=C(O)CCCCNC1(c2ccccc2)CCCCC1.c1ccc(C2(N3CCCCC3)CCCCC2)cc1` displayed an Activity in the data set listed under Canis familiaris of 2478.

In the case of `COC(=O)CCCCNC1(c2ccccc2)CCCCC1.Cl.c1ccc(C2(N3CCCCC3)CCCCC2)cc1`, the Activity in the data set filed under Canis familiaris was 2388.

`Cl.c1ccc(C2(N3CCCCC3)CCCCC2)cc1` [PHENCYCLIDINE HYDROCHLORIDE] came in with an Activity in the data set listed under Canis familiaris of 3062. Besides, the half-life in data set [1] is 2.86 h; in data set [2], 2.36 h.
